Test results taken from patent publication US20220016196A1, “Aloe Based Compositions Comprising Polysaccharides and Polyphenols for Regulation of Homeostasis of Immunity” (Unigen, Inc., priority 2020, published 2022).

Tested on: LPS-induced septic mice
Experiment: LPS induced sepsis model, survival/mortality rate
Type: in vivo, mouse
Conditions: for # of Death after LPS: cumulative; for Number of deceased animals post LPS: per interval
Method: CD-1 mice were purchased from a USDA approved vendor. Male CD-1 mice at 8 weeks old were purchased form Charles River Laboratories, Inc. (Wilmington, Mass.). Animals were acclimated upon arrival and used for the study at the age of 11 weeks. At the time of the study animals average weigh 33.6±2.4 grams. They were housed in a temperature-controlled room (71-72° F.) on a 12-hour light-dark cycle and provided with feed and water ad libitum.
This model used a survival/mortality rate of animals as the end point measurement (Wang et al., 1999). LPS, an exogenous assault trigger, is an integral component of the outer membrane of gram-negative bacteria and a major contributing factor in the initiation of a generalized inflammatory process that could lead to endotoxic shock. It is a state mediated principally by macrophages/monocytes attributed to excessive production of several early phase cytokines such as TNF, IL-1, IL-6 and gamma interferon as well as a late stage mediator HMGB1. Following median lethal dose of LPS (25 mg/kg) administration dissolved in Phosphate buffered saline (PBS; Lifeline, Lot #07641), animals develop endotoxemia and HMGB1 would be detected in the serum at 8 hours and reach to a peak and plateau levels from 16 to 32 hours after LPS. If untreated, mice would start to die within 24 hours. In the current study, we monitored the mice for 4 days after LPS injection. The survival/mortality rate compared LPS +Sodium butyrate (SB; Aldrich, St. Louis, Mo.; lot #MKCG7272), LPS+Vehicle (0.5% CMC; Spectrum, New Brunswick, N.J.; lot #1IJ0127) and LPS+UP360 (Aloe based composition comprising polysaccharides and polyphenols made in Example 9). The following groups were included in the study:
In this model, mice were pretreated with UP360 illustrated in the Example 9 for a week (7 days) before lethal dose intraperitoneal injection of LPS (E. coli, 055:B5; Sigma, St. Louis, Mo.; Lot #081275) at 25 mg/kg with a 10 mL/kg PBS volume. Animals were observed hourly. Given the fact that Sodium butyrate improved LPS-induced injury in mice through suppression of HMGB1 release, we chose this compound as a positive control for our study (Li et al., 2018).
Male CD-1 mice (n=13) were treated with Aloe, Poria, and Rosmarinic acid (RA) utilized for making UP360 in Example 9 at 150 mg/kg, 300 mg/kg and 50 mg/kg, respectively, for 7 days before LPS injection. On the 8th day, mice were injected with 25 mg/kg LPS dissolved in PBS at 10 mL/kg intraperitoneally. Mice in the UP360-treated group received a daily dose of UP360 at 500 mg/kg. All mice continued to receive the respective treatment daily for the duration of the study. Following median lethal dose of LPS (25 mg/kg) i.p. administration, animals are expected to develop sepsis within a few hours. If untreated, mice would start to die within 24 hours. Animals were observed hourly. In the current study, we monitored the mice for 6 days after LPS injection. The survival rate compared LPS+Sodium butyrate (SB), LPS+Vehicle (0.5% CMC), LPS+UP360, LPS+Aloe, LPS+Poria and LPS+Rosmarinic acid. Normal control animals received only PBS intraperitoneally and gavaged only with the carrier vehicle 0.5% CMC. Given the fact that Sodium butyrate (SB) improved LPS-induced injury in mice through suppression of HMGB1 release, we chose this compound as a positive control for our study (Li et al., 2018).
The survival rate and mortality rate of the contemplated Aloe-based compositions, including UP360, comprising and, in some embodiments, consisting of polysaccharides and polyphenols was compared with those dosages of individual extracts as they appear in the formulation to find out potential additive, antagonist or synergistic effects in combination using Colby's equation (Colby, 1967). For the blending of these plant extracts to have unexpected synergy, the observed inhibition needs to be greater than the calculated value.

[1] = n=13 study, doses as E61, 24 hr
[2] = n=13 study, doses as E61, 36 hr
[3] = n=13 study, doses as E61, 48 hr
[4] = n=13 study, doses as E61, 60 hr
[5] = n=13 study, doses as E61, 72 hr
[6] = n=13 study, doses as E61, 96 hr
[7] = n=13 study, doses as E61, 120 hr
[8] = n=13 study, doses as E61, 144 hr

In the case of `CCCC(=O)[O-].[Na+]` [Sodium Butyrate], the “# of Death after LPS” value (CD-1 mice n=8, LPS 25 mg/kg i.p., 500 mg/kg oral from 7 days before, 24 hr) is reported as 2, the “Number of deceased animals post LPS” value (CD-1 mice n=13, LPS 25 mg/kg i.p., oral UP360/SB 500, Aloe 150, Poria 300, RA 50 mg/kg, 24 hpi) is reported as 2 and the “MR (%)” value (mortality rate, n=13 study, doses as E49, end of study) is reported as 69.2%. For the same molecule, the “# of Death after LPS, Total” value (n=8, LPS 25 mg/kg i.p., 500 mg/kg oral) was 4, the survival rate (n=8, LPS 25 mg/kg i.p., 500 mg/kg oral, 24 hours after LPS) was 75% and the survival rate (n=8, LPS 25 mg/kg i.p., 500 mg/kg oral, 34 hours after LPS) was 62.5%. The survival rate (n=8, LPS 25 mg/kg i.p., 500 mg/kg oral, 48 hours after LPS) was “half of the animals were deceased”, the survival rate (n=8, LPS 25 mg/kg i.p., 500 mg/kg oral, 72 hours after LPS) was 50% and the “# of Death after LPS” value (n=8, LPS 25 mg/kg i.p., 500 mg/kg oral, 32 hr) was 3. The “# of Death after LPS” value (n=8, LPS 25 mg/kg i.p., 500 mg/kg oral, 34 hr) was 3, the “# of Death after LPS” value (n=8, LPS 25 mg/kg i.p., 500 mg/kg oral, 48 hr) was 4 and the “# of Death after LPS” value (n=8, LPS 25 mg/kg i.p., 500 mg/kg oral, 58 hr) was 4. For the same molecule, the “# of Death after LPS” value (n=8, LPS 25 mg/kg i.p., 500 mg/kg oral, 72 hr) was 4, the “# of Death after LPS” value (n=8, LPS 25 mg/kg i.p., 500 mg/kg oral, 82 hr) was 4 and the “Survival rate (%)” value (n=8, LPS 25 mg/kg i.p., 500 mg/kg oral, final (82 hours, same at 96 and 120 hours)) was 50%. For the same molecule, the “Survival rate (%)” value (n=13, LPS 25 mg/kg i.p., UP360/Sodium Butyrate 500, Aloe 150, Poria 300, RA 50 mg/kg, 0 hr) was 100%, the Survived (n=13 study, doses as E49, at 144 hpi) was 4 and the “Number of deceased animals post LPS” value (n=13 study, doses as E49, 36 hpi) was 4. The “Number of deceased animals post LPS” value (n=13 study, doses as E49, 48 hpi) was 1, the “Number of deceased animals post LPS” value (n=13 study, doses as E49, 60 hpi) was 1 and the “Number of deceased animals post LPS” value (n=13 study, doses as E49, 72 hpi) was 0. For the same molecule, the “Number of deceased animals post LPS” value (n=13 study, doses as E49, 96 hpi) was 1, the “Number of deceased animals post LPS” value (n=13 study, doses as E49, 120 hpi) was 0 and the “Number of deceased animals post LPS” value (n=13 study, doses as E49, 144 hpi) was 0. The Deceased (n=13 study, doses as E49, total over 144 hpi) was 9, the “Mortality rate (%)” value (n=13 study, doses as E61, 0 hr) was 0.0% and the “Mortality rate (%)” value [1] was 15.4%. For the same molecule, the “Survival rate (%)” value [1] was 84.6%, the “Mortality rate (%)” value [2] was 46.2% and the “Survival rate (%)” value [2] was 53.8%. For the same molecule, the “Mortality rate (%)” value [3] was 53.8%, the “Survival rate (%)” value [3] was 46.2% and the “Mortality rate (%)” value [4] was 61.5%. For the same molecule, the “Survival rate (%)” value [4] was 38.5%, the “Mortality rate (%)” value [5] was 61.5% and the “Survival rate (%)” value [5] was 38.5%. The “Mortality rate (%)” value [6] was 69.2%, the “Survival rate (%)” value [6] was 30.8% and the “Mortality rate (%)” value [7] was 69.2%. For the same molecule, the “Survival rate (%)” value [7] was 30.8%, the “Mortality rate (%)” value [8] was 69.2% and the “Survival rate (%)” value [8] was 30.8%. The “SR (%)” value (survival rate, n=13 study, doses as E49, end of study) was 30.8%.
